How the values were obtained:
[1] = tested on: acrosomal exocytosis in permeabilized human sperm; test: Acrosomal exocytosis assay in SLO-permeabilized human sperm (FITC-PSA lectin staining); type: cell-based; conditions: 1 µM MARCKS ED 15 min, then 50 µM PIP2 or 5 µM adenophostin, then 10 µM free Ca2+ or 200 nM PMA
Procedure: Acrosomal exocytosis assays were performed as previously described. Briefly, human semen obtained from normal healthy donors was allowed to liquefy for 30-60 min at 37°C. We used a swim-up protocol to isolate highly motile sperm under capacitating conditions in Human Tubal Fluid media (HTF, as formulated by Irvine Scientific, Santa Ana, CA) supplemented with 0.5% bovine serum albumin (BSA) for 1 h at 37°C in an atmosphere of 5% CO2/95% air. Sperm concentrations were adjusted to 5–10×10^6 cells/ml and incubated for at least 2 h under capacitating conditions. We have shown previously that human sperm incubated under these conditions are responsive to progesterone. […] Acrosomal status was evaluated by staining with FITC-coupled Pisum sativum agglutinin (FITC-PSA) according to [21]. At least 200 cells were scored using a Nikon Optiphot II microscope equipped with epifluorescence optics. […] For each experiment, acrosomal exocytosis indexes were calculated by subtracting the number of reacted spermatozoa in the negative control (range 10%–30%) from all values, and expressing the resulting values as a percentage of the acrosome exocytosis observed in the positive control (range 25%–40%). […] Data were evaluated using one-way ANOVA and post hoc tests (Dunnett's test or confident intervals). […]

[2] = tested on: phosphorylated MARCKS in human sperm; test: Phosphorylated MARCKS level in stimulated sperm by Western blot (anti-phospho-MARCKS); type: cell-based; conditions: non-permeabilized capacitated sperm; 100 µM 2-APB 15 min, then 20 min 10 µM A23187, 200 nM PMA or 15 µM progesterone; normalized against β-tubulin; three experiments
Procedure: To examine the presence of MARCKS and phosphorylated MARCKS, the fraction of motile sperm capacitated for 2–3 h in BSA supplemented-HTF medium was used. After removing the HTF by washing cells twice with cold PBS, sperm pellets were resuspended in sample buffer (2% SDS, 10% glycerol, and 62.5 mM Tris-HCl pH 6.8) without disulfide reducing agents. Proteins were extracted by heating three times to 95°C for 4 min each. Extracts were centrifuged (12,000×g) for 10 min, and the supernatants were adjusted to 5% β-mercaptoethanol. Protein were resolved on 10% polyacrylamide gels according to [23], and transferred to PVDF membranes (Millipore). Non-specific reactivity was blocked by incubation for 1 h at room temperature (RT) with 5% skim milk dissolved in tris-buffered saline with 0.1% Tween-20 (T-TBS: 50 mM Tris-HCl pH 7.4, 150 mM NaCl, 0.1% Tween-20). Blots were incubated with primary anti-MARCKS antibody from Abcam (0.26 µg/ml), anti-MARCKS N-19 from Santa Cruz (0.13 µg/ml), or anti-phospho-MARCKS (0.06 µg/ml), in blocking solution overnight at 4°C. Biotinylated, goat anti-mouse-IgG (0.076 µg/ml), biotinylated, rabbit anti-goat-IgG (0.4 µg/ml) or biotinylated, goat anti-rabbit-IgG (0.076 µg/ml) were used as secondary antibodies during 60 min incubations at RT. Blots were then incubated with peroxidase-conjugated streptavidin (0.17 µg/ml) during 60 min incubations at RT. Excess first and second antibodies, and peroxidase-conjugated streptavidin were removed by washing five times for 10 min each in T-TBS. For loading control blots were reprobed with anti-β-tubulin. […]
Figure 5 Assessing MARCKS function on acrosomal exocytosis in non-permeabilized sperm. […] The increase in fluorescence is expressed as (F/F0)-1 ((maximum fluorescence intensity/initial fluorescence)-1) versus time in seconds. […] (D) Quantification of three independent experiments. […] Phosphorylated MARCKS was detected by Western blot assay using an anti-phospho-MARCKS antibody. […]

Row | Molecule | rescue of MARCKS ED inhibition of acrosomal exocytosis [1] | increase of phosphorylated MARCKS [2]
1 | Nc1ncnc2c1ncn2[C@@H]1O[C@H](CO)[C@@H](O[C@H]2O[C@H](CO)[C@@H](OP(=O)(O)O)[C@H](OP(=O)(O)O)[C@H]2O)[C@H]1OP(=O)(O)O [adenophostin, Adenophostin A] | rescued exocytosis impaired by MARCKS ED | 
2 | CCCCCCCCCCCCCC(=O)O[C@@H]1[C@@H](C)[C@@]2(O)[C@@H](C=C(CO)C[C@]3(O)C(=O)C(C)=C[C@@H]23)[C@@H]2C(C)(C)[C@]12OC(C)=O [PMA, phorbol 12-myristate 13-acetate] |  | 60%
3 | CNc1ccc2oc(C[C@H]3O[C@@]4(CC[C@H]3C)O[C@H]([C@H](C)C(=O)c3ccc[nH]3)[C@H](C)C[C@H]4C)nc2c1C(=O)O [A23187] |  | 50%
4 | CC(=O)[C@H]1CC[C@H]2[C@@H]3CCC4=CC(=O)CC[C@]4(C)[C@H]3CC[C@]12C [progesterone] |  | 40%
5 | Phosphatidylinositol 4, 5-bisphosphate [PIP2] | able to recover the MARCKS ED inhibition | 

From article PMC3660367, “MARCKS Protein Is Phosphorylated and Regulates Calcium Mobilization during Human Acrosomal Exocytosis” (PLoS ONE, 2013)
